Laboratory results published in US8354419B2, “Benzimidazole analogues for the treatment or prevention of flavivirus infections” (Vertex Pharmaceuticals Incorporated, priority 2009, dated 2013).

Tested on: HCV (Ib) RNA replication
Assay: Cell-based luciferase reporter HCV (1b) RNA replication assay (replicon cell lines Huh-7 5.2 and ET)
Design: species or system Hepatitis C virus
Settings: Hepatitis C virus, Huh-7, 96 h, HCV 1b genotype replicon, luciferase readout, 4 days incubation; read-out: EC50_1b
Text: Cell-Based Luciferase Reporter HCV (Ib) RNA Replication Assay Cell Culture
Replicon cell lines Huh-7, 5.2 and ET which are derived from the Huh-7 hepatocarcinoma cell line are maintained in culture as generally described in Krieger, N; Lohmann, V; Bartenschlager, R. Enhancement of hepatitis C virus RNA replication by cell culture-adaptive mutations. J. Virol. 2001, 75, 4614-4624. The Huh-7, 5.2 cells contain the highly cell culture-adapted replicon I389luc-ubi-neo/NS3-3′/5.1 construct that carries, in addition to the neomycin gene, an integrated copy to the firefly luciferase gene (Krieger, N; Lohmann, V; Bartenschlager, R. Enhancement of hepatitis C virus RNA replication by cell culture-adaptive mutations. J. Virol. 2001, 75, 4614-4624). This cell line allows measurement of HCV RNA replication and translation by measuring luciferase activity. It has been previously shown that the luciferase activity tightly follows the replicon RNA level in these cells (Krieger, N; Lohmann, V; Bartenschlager, R. Enhancement of hepatitis C virus RNA replication by cell culture-adaptive mutations. J. Virol. 2001, 75, 4614-4624). The Huh-7, ET cell line has the same features as those mentioned for Huh-7, 5.2 cell line, except that ET cells are more robust and contain an adaptative mutation in the HCV NS4B gene instead of NS5A. Both cell lines are maintained in cultures at a sub-confluent level (<85%) as the level of replicon RNA is highest in actively proliferating cells. The culture media used for cell passaging consist of DMEM (Gibco BRL Laboratories, Mississauga, ON, Canada) supplemented with 10% foetal bovine serum with 1% penicillin/streptomycin, 1% glutamine, 1% sodium pyruvate, 1% non-essential amino acids, and 180 ug/ml of G418 final concentration. Cells are incubated at 37° C., in an atmosphere of 5% CO2 and passaged twice a week to maintain sub-confluence.
Approximately 3000 viable Huh-7, 5.2 or ET cells (100 μl) are plated per well in a white opaque 96-well microtiter plate. The cell culture media used for the assay is the same as described above except that it contains no G418 and no phenol red. After an incubation period of 3-4 hours at 37° C. in a 5% CO2 incubator, compounds (100 μl) are added at various concentrations. Cells are then further incubated for 4 days at 37° C. in a 5% CO2 incubator. Thereafter, the culture media is removed and cells are lysed by the addition of 95 μL of the luciferase buffer (luciferin substrate in buffered detergent). Cell lysates are incubated at room temperature and protected from direct light for at least 10 minutes. Plates are read for luciferase counts using a luminometer (Wallac MicroBeta Trilux, Perkin ELmer™, MA, USA).
The 50% inhibitory concentrations (IC50s) for inhibitory effect are determined from dose response curves using eleven concentrations per compound in duplicate. Curves are fitted to data points using nonlinear regression analysis, and IC50s are interpolated from the resulting curve using GraphPad Prism software, version 2.0 (GraphPad Software Inc., San Diego, Calif., USA).
Table 2 show compounds representative of the present invention and the EC50 values against the HCV 1b genotype.

Row | SMILES | EC50 [nM]
1 | COC(=O)N[C@H](C(=O)N1C[C@@H](C)C[C@H]1c1nc2cc(-c3ccc(-c4ccc5[nH]c([C@@H]6C[C@H](C)CN6C(=O)[C@@H](NC(=O)OC)C(C)C)nc5c4)cc3)ccc2[nH]1)C(C)C [Compound 186] | ≤ 5
2 | COC(=O)N[C@H](C(=O)N1CCC[C@H]1c1nc2cc(C#Cc3ccc4[nH]c([C@@H]5CCCN5C(=O)[C@H](NC(=O)OC)C(C)C)nc4c3)ccc2[nH]1)C(C)C [Compound 62] | ≤ 5
3 | COC(=O)N[C@H](C(=O)N1CCC[C@H]1c1nc2ccc(-c3cn(C)c(-c4ccc5nc([C@@H]6CCCN6C(=O)[C@@H](NC(=O)OC)C(C)C)[nH]c5c4)n3)cc2[nH]1)C(C)C [Compound 238] | 5 to 5000
4 | CC[C@H]1C[C@@H](c2nc3cc(-c4ccc(-c5ccc6[nH]c([C@@H]7C[C@H](CC)CN7C(=O)[C@@H](NC(C)OC)C(C)C)nc6c5)cc4)ccc3[nH]2)N(C(=O)[C@@H](NC(=O)OC)C(C)C)C1 (stereo partly drawn) [Compound 302] | ≤ 5
5 | O=C1CCC(C(=O)N2CCC[C@H]2c2nc3cc(C#Cc4ccc5nc([C@@H]6CCCN6C(=O)[C@@H]6CCC(=O)N6)[nH]c5c4)ccc3[nH]2)N1 (stereo partly drawn) [Compound 67] | 5 to 5000
6 | COC(=O)N[C@H](C(=O)N1CCC[C@H]1c1nc2cc(C#Cc3ccc4[nH]c([C@@H]5CCCN5C(=O)[C@@H](NC(=O)OC)C(C)C)nc4c3)ccc2[nH]1)C(C)C [Compound 37, {(S)-1-[(S)-2-(5-{2-[(S)-1-((S)-2-Methoxycarbonylamino-3-methyl-butyryl)-pyrrolidin-2-yl]-1H-benzoimidazol-5-ylethynyl}-1H-benzoimidazol-2-yl)-pyrrolidine-1-carbonyl]-2-methyl-propyl}-carbamic acid methyl ester] | ≤ 5
7 | COC(=O)N[C@H](C(=O)N1CCC[C@H]1c1nc2cc(C#Cc3ccc4[nH]c([C@@H]5CCCN5C(=O)[C@H](NC(=O)OC)c5ccccc5)nc4c3)ccc2[nH]1)C(C)C [Compound 39, {(S)-1-[(S)-2-(5-{2-[(S)-1-((R)-2-Methoxycarbonylamino-2-phenyl-acetyl)-pyrrolidin-2-yl]-1H-benzoimidazol-5-ylethynyl}-1H-benzoimidazol-2-yl)-pyrrolidine-1-carbonyl]-2-methyl-propyl}-carbamic acid methyl ester] | ≤ 5
8 | C[C@@H]1CN(c2ccc3nc([C@@H]4CCCN4C(=O)OC(C)(C)C)[nH]c3c2)CCN1c1ccc2nc([C@@H]3CCCN3C(=O)OC(C)(C)C)[nH]c2c1 [Compound 283] | > 5000
9 | CC(C)(C)OC(=O)N1CCCC[C@H]1c1nc2cc(C#Cc3ccc4nc([C@@H]5CSCN5C(=O)OC(C)(C)C)[nH]c4c3)ccc2[nH]1 [Compound 48] | > 5000
10 | COC(=O)NC(C(=O)N1CCC[C@H]1c1nc2ccc(CCCCc3ccc4[nH]c([C@@H]5CCCN5C(=O)[C@@H](NC(=O)OC)C(C)C)nc4c3)cc2[nH]1)C(C)C (stereo partly drawn) [Compound 68] | ≤ 5
11 | COC(=O)N[C@H](C(=O)N1CCC[C@H]1c1nc2cc(-c3ccc(-c4ccc5[nH]c([C@@H]6C[C@H](C)CN6C(=O)[C@@H](NC(=O)OC)C(C)C)nc5c4)cc3)ccc2[nH]1)C(C)C [Compound 272] | ≤ 5
12 | CC(C)(C)OC(=O)N1CCC[C@H]1c1nc2cc(C#CC#Cc3ccc4[nH]c([C@@H]5CCCN5C(=O)OC(C)(C)C)nc4c3)ccc2[nH]1 [Compound 69] | 5 to 5000
13 | CC(C)[C@@H](C(=O)N1C[C@@H](C)C[C@H]1c1nc2cc(-c3ccc(-c4ccc5[nH]c([C@@H]6C[C@H](C)CN6C(=O)[C@H](C(C)C)N6CCOC6=O)nc5c4)cc3)ccc2[nH]1)N1CCOC1=O [Compound 306] | ≤ 5
14 | COC(=O)N[C@H](C(=O)N1CCC[C@H]1c1nc2cc(-c3c(C)cc(-c4ccc5nc([C@@H]6CCCN6C(=O)[C@@H](NC(=O)OC)C(C)C)[nH]c5c4)cc3C)ccc2[nH]1)C(C)C [Compound 149] | ≤ 5
15 | CC(C)(C)CCN1CCC[C@H]1c1nc2cc(C#Cc3ccc4[nH]c([C@@H]5CCCN5CCC(C)(C)C)nc4c3)ccc2[nH]1 [Compound 134] | 5 to 5000
16 | COC(=O)N[C@H](C(=O)N1CCC[C@H]1c1nc2cc(-c3ccc(-c4ccc5nc([C@@H]6CCCN6C(=O)[C@@H](NC(=O)OC)C(C)C)[nH]c5c4)cc3OC)ccc2[nH]1)C(C)C [Compound 8, ((S)-1-{(S)-2-[5-(2-Methoxy-4-{2-[(S)-1-((S)-2-methoxycarbonylamino-3-methyl-butyryl)-pyrrolidin-2-yl]-1H-benzoimidazol-5-yl}-phenyl)-1H-benzoimidazol-2-yl]-pyrrolidine-1-carbonyl}-2-methyl-propyl)-carbamic acid methyl ester] | ≤ 5
17 | COC(=O)N[C@H](C(=O)N1CCC[C@H]1c1nc2cc(C#CC#Cc3ccc4nc([C@@H]5CCCN5C(=O)[C@H](NC(=O)OC)C(C)C)[nH]c4c3)ccc2[nH]1)C(C)C [Compound 74] | ≤ 5
18 | CC(C)[C@H](NC(=O)N(C)C)C(=O)N1CCC[C@H]1c1nc2cc(C#Cc3ccc4nc([C@@H]5CCCN5C(=O)[C@@H](NC(=O)N(C)C)C(C)C)[nH]c4c3)ccc2[nH]1 [Compound 91] | ≤ 5
19 | COC(=O)N[C@H](C(=O)N1CCC[C@H]1c1nc2ccc(N3C[C@H](C)N(c4ccc5nc([C@@H]6CCCN6C(=O)[C@@H](NC(=O)OC)C(C)C)[nH]c5c4)C[C@H]3C)cc2[nH]1)C(C)C [Compound 258] | ≤ 5
20 | CC(C)[C@H](NC(=O)[C@@H]1CCC(=O)N1)C(=O)N1CCC[C@H]1c1nc2cc(C#Cc3ccc4[nH]c([C@@H]5CCCN5C(=O)[C@@H](NC(=O)[C@@H]5CCC(=O)N5)C(C)C)nc4c3)ccc2[nH]1 [Compound 87] | > 5000
21 | COC(=O)N[C@H](C(=O)N1CCC[C@H]1c1nc2ccc(-c3cc(OC)c(-c4ccc5nc([C@@H]6CCCN6C(=O)[C@@H](NC(=O)OC)C(C)C)[nH]c5c4)cc3OC)cc2[nH]1)C(C)C [Compound 12] | ≤ 5
22 | COC(=O)N[C@@H](C(=O)N1CC[C@H]1c1nc2cc(C#Cc3ccc4[nH]c([C@@H]5CCN5C(=O)[C@H](NC(=O)OC)C(C)C)nc4c3)ccc2[nH]1)C(C)C [Compound 73] | ≤ 5
23 | Cn1c(C2CCCN2C(=O)OC(C)(C)C)nc2ccc(-c3ccc(-c4ccc5[nH]c(C6CCCN6C(=O)OC(C)(C)C)nc5c4)cc3)cc21 (stereo not drawn) [Compound 256] | 5 to 5000
24 | COC(=O)N[C@H](C(=O)N1C[C@@H](C)C[C@H]1c1nc2cc(-c3sc4c(C)c(-c5ccc6[nH]c([C@@H]7C[C@H](C)CN7C(=O)[C@@H](NC(=O)OC)C(C)C)nc6c5)sc4c3C)ccc2[nH]1)C(C)C [Compound 331] | ≤ 5
25 | C[C@@H](C(=O)N1CCC[C@H]1c1nc2cc(C#Cc3ccc4[nH]c([C@@H]5CCCN5C(=O)[C@H](C)N5CCCC5=O)nc4c3)ccc2[nH]1)N1CCCC1=O [Compound 79] | ≤ 5
26 | COC(=O)N[C@H](C(=O)N1C[C@@H](C)C[C@H]1c1nc2cc(-c3cc(F)c(-c4ccc5[nH]c([C@@H]6C[C@H](C)CN6C(=O)[C@@H](NC(=O)OC)C(C)C)nc5c4)cc3F)ccc2[nH]1)C(C)C [Compound 280] | ≤ 5
27 | O=C1CCCCCN1CC(=O)N1CCC[C@H]1c1nc2cc(C#Cc3ccc4[nH]c([C@@H]5CCCN5C(=O)CN5CCCCCC5=O)nc4c3)ccc2[nH]1 [Compound 80] | > 5000
28 | COC(=O)N[C@H](C(=O)N1C[C@H](OC)C[C@H]1c1nc2cc(-c3ccc(-c4ccc5[nH]c([C@@H]6C[C@@H](OC)CN6C(=O)[C@@H](NC(=O)OC)C(C)C)nc5c4)cc3)ccc2[nH]1)C(C)C [Compound 174] | ≤ 5
29 | CC(C)(C)OC(=O)N1CCN(C(=O)OCc2ccccc2)[C@H](c2nc3cc(C#Cc4ccc5[nH]c([C@@H]6CCCCN6C(=O)OCc6ccccc6)nc5c4)ccc3[nH]2)C1 [Compound 28, (S)-2-{5-[2-((S)-1-Benzyloxycarbonyl-piperidin-2-yl)-1H-benzoimidazol-5-ylethynyl]-1H-benzoimidazol-2-yl}-piperazine-1,4-dicarboxylic acid 1-benzyl ester 4-tert-butyl ester] | 5 to 5000
30 | COC(=O)N[C@H](C(=O)N1C[C@@H](C)C[C@H]1c1nc2cc(-c3ccc(-c4ccc5nc([C@@H]6C[C@H](C)CN6C(=O)[C@H](C(C)C)N(C(=O)OC)C(C)C)[nH]c5c4)cc3)ccc2[nH]1)C(C)C [Compound 284] | ≤ 5
